B1: MBP: myelin basic protein, a negative control (protein, UniProt P02686 1-304, looked up)
Myelin basic protein: MGNHAGKRELNAEKASTNSETNRGESEKKRNLGELSRTTSEDNEVFGEADANQNNGTSSQDTAVTDSKRTADPKNAWQDAHPADPGSRPHLIRLFSRDAPGREDNTFKDRPSESDELQTIQEDSAATSESLDVMASQKRPSQRHGSKYLATASTMDHARHGFLPRHRDTGILDSIGRFFGGDRGAPKRGSGKDSHHPARTAHYGSLPQKSHGRTQDENPVVHFFKNIVTPRTPPPSQGKGRGLSLSRFSWGAEGQRPGFGYGGRASDYKSAHKGFKGVDAQGTLSKIFKLGGRDSRSGSPMARR

Test system: IFN-γ mRNA in LN cells
Assay: IFN-γ mRNA by real-time PCR in LN cells of GA-immunized CD-1, BALB/cByJ, SJL/J mice (Example III)
Assay type: cell-based, mouse
Conditions: 6 hours
Protocol: On Day 0, mice were immunized with 250 μg GA (GMA, Mylan Pharmaceuticals, Inc.) and CFA. The GA solution (20 mg/mL) was diluted with Dulbecco's Phosphate-Buffered Saline to 5 mg/mL. The dosing formulation consisted of equal volumes of the diluted GA solution (5 mg/mL) and CFA solution, mixed until well-emulsified. Animals were weighed and allocated to groups. Animals were dosed by injection into four footpads. The injection volume per animal was 0.1 mL (about 10 μL into each front footpad, and 40 μL into each hind footpad).
Immunized animals were euthanized by cervical dislocation on Day 10 post-immunization. Lymph node cells were isolated from animals and treated with Myelin Basic Protein (MBP, a negative control), Concanavalin A (ConA, a positive control) or GA as shown in Table 16. Lymph nodes in the axillary and popliteal regions were removed aseptically in a purifier clean bench. […] The LN were then washed 3 times with −5 mL of RPMI medium, and isolated by pressing the LN with a syringe plunger. […] The cell suspension was centrifuged at about 200×g for 10 minutes at about 4° C. and re-suspended in ice cold enriched DCCM-1 medium. Cells were seeded in 96-well tissue culture plates.
LN cells isolated from GA-immunized animals were stimulated with GA (GMA, Mylan Pharmaceuticals, Inc.) at concentrations as indicated in Tables 16 and 17. A positive control was prepared by treating LN cells with 2.5 μg/mL concavalin A (ConA, a non-specific T cell stimulant). Myelin basic protein (MBP, 10 μg/mL) and enriched DCCM-1 medium served as negative controls. The cells from all groups each were stimulated with the same GA lot. Each reaction was set up in triplicate.
After incubation at about 37° C. in a humidified CO2 incubator for 6 hours, the cells were lysed for total RNA isolation. Total RNA was isolated from treated LN cells using SV 96 Total RNA Isolation System according to the manufacturer's protocol (Promega, Cat. #Z3500). Cells were washed once with Phosphate Buffered Saline (PBS) and lysed in RNA lysis buffer. The lysate was transferred to wells of the SV 96 binding plate. Samples were washed with RNA wash solution and treated with DNase. Total RNA was eluted with nuclease-free water from the binding plate.
After the reverse transcriptase reaction was completed, cDNA samples were used directly for real-time PCR to measure the response biomarker mRNA levels produced by the stimulated cells. […] All probes for target genes contained FAM dye, and probes for the internal control contained VIC®/MGB dye. Samples will be prepared and run in 96-well plates using a Real-Time PCR system (7500, Life Technologies). This system allows direct detection of PCR-product formation by measuring the increase in fluorescent emission continuously during the PCR reaction. A relative quantitation method was used to analyze changes in mouse IL-2, IL-4, IL-5, IL-10, IL-13, IFN-γ and TNF-α expression in GA-treated samples relative to the untreated control (enriched DCCM-1 treated) samples. The Real-Time PCR program was:
The levels of mouse cytokine amplicons (IL-2, IL-4, IL-5, IL-10, IL-13, mIFN-γ and TNF-α) were normalized to internal probe levels (GAPDH) from the same samples. The following equations were used to calculate the relative increase in response to GA stimulation compared to the control sample: ΔCT=CT_target−CT_reference ΔΔCT=−ΔCT_Treated−CT_VC

[1] = Group 1C: CD-1, GA-immunized, stimulation 10 μg/mL
[2] = Group 2C: BALB/cByJ, GA-immunized, stimulation 10 μg/mL
[3] = Group 3C: SJL/J, GA-immunized, stimulation 10 μg/mL

Molecule	IFN-γ mRNA Expression (Group 1C: CD-1, GA-immunized, stimulation 2.5 μg/mL) [fold change vs control]	IFN-γ mRNA Expression (Group 2C: BALB/cByJ, GA-immunized, stimulation 2.5 μg/mL) [fold change vs control]	IFN-γ mRNA Expression (Group 3C: SJL/J, GA-immunized, stimulation 2.5 μg/mL) [fold change vs control]	IFN-γ mRNA Expression (Group 1C: CD-1, GA-immunized, stimulation 0.3 μg/mL) [fold change vs control]	IFN-γ mRNA Expression (Group 1C: CD-1, GA-immunized, stimulation 1 μg/mL) [fold change vs control]	IFN-γ mRNA Expression (Group 1C: CD-1, GA-immunized, stimulation 3 μg/mL) [fold change vs control]	IFN-γ mRNA Expression [1] [fold change vs control]	IFN-γ mRNA Expression (Group 2C: BALB/cByJ, GA-immunized, stimulation 0.3 μg/mL) [fold change vs control]	IFN-γ mRNA Expression (Group 2C: BALB/cByJ, GA-immunized, stimulation 1 μg/mL) [fold change vs control]	IFN-γ mRNA Expression (Group 2C: BALB/cByJ, GA-immunized, stimulation 3 μg/mL) [fold change vs control]	IFN-γ mRNA Expression [2] [fold change vs control]	IFN-γ mRNA Expression (Group 3C: SJL/J, GA-immunized, stimulation 0.3 μg/mL) [fold change vs control]	IFN-γ mRNA Expression (Group 3C: SJL/J, GA-immunized, stimulation 1 μg/mL) [fold change vs control]	IFN-γ mRNA Expression (Group 3C: SJL/J, GA-immunized, stimulation 3 μg/mL) [fold change vs control]	IFN-γ mRNA Expression [3] [fold change vs control]
Concanavalin A [ConA, reference compound]	4.0	1.4	1.4												
L-glutamic acid polymer with L-alanine, L-lysine and L-tyrosine, acetate (salt) [GA]				1.6	2.8	4.3	3.1	1.2	1.7	2.8	2.2	0.9	1.7	2.5	2.2
B1							0.8				0.2				0.2
